“Also recorded” adds a separate entry of the source. Where two headings read alike, the source gives them in different places.
Experiments:
fetal cartilage explants = test: Proliferation (BrdU, EdU) in fetal cartilage explants; type: cell-based, human
Method: FIGS. 26A-26J. LIF/STAT3/MYC signaling is prominent in fetal articular chondrocytes and can activate a fetal-like phenotype in adult cells. (FIG. 26A) Levels of phospho-STAT3 (pSTAT3) and MYC protein were quantitated in human fetal and adult articular chondrocytes relative to histone H3. (FIG. 26B) Effects of soluble LIF receptor (sLIFR) on MYC and pSTAT3 protein levels on fetal articular chondrocytes after 72 hours. (FIG. 26C) Detection of apoptotic cells using TUNEL staining and flow cytometry analysis of fetal articular cartilage explants cultured in the absence (control) or presence of a MYC (10058-F4) or STAT3 (STATTIC) inhibitor for 24 hours. (FIG. 26D) Quantification of proliferating cells via EdU incorporation in fetal articular cartilage explants and also by flow cytometry analysis for BrdU. Scale bars represent 100 μm. (FIG. 26E) Assessment of metabolic activity of human fetal articular chondrocytes cultured in the presence or absence of MYC or STAT3 inhibitors. (FIG. 26F) Migration capacity of fetal articular chondrocytes was assessed using a Transwell® assay in the absence or presence of MYC and STAT3 inhibitors. (FIG. 26G) Protein levels of MYC and pSTAT3 were measured in adult human articular chondrocytes with and without incubation with LIF. […] (FIG. 26H) Migratory capacity of adult human articular chondrocytes in a Transwell® assay measured in the presence or absence of LIF. […]

[1] = test system: human fetal articular chondrocytes; test: Cellular metabolism (Seahorse), human fetal articular chondrocytes; type: cell-based
Method: The mitochondrial assay cellular oxygen consumption and mitochondrial function was carried out to measure basal respiration using XF24 instrument (Seahorse Biosciences) according to manufacturer instructions. Tested cells (100,000 cells per well) we plated into 24-well test plates 48 hours prior to experimentation. Oxygen consumption rates and extracellular acidification rates were measured every 10 minutes for up to 60 minutes (Rate 1-6).

[2] = test system: fetal BMPR1B+ chondrocytes; test: Clonogenic potential of fetal chondrocytes; type: cell-based, human
Description: FIGS. 12A-12D. […] Cell sorting results for control (FIG. 12A), p-STAT3 inhibitor (FIG. 12B) and c-MYC inhibitor (FIG. 12C). y-axis: FSC (forward scatter). x-axis: increasing concentration of Annexin V-FITC. (FIG. 12D) Histogram depicting % clonogenic cells (fetal BMPR1B+ chondrocytes) under: control, p-STAT3 and c-MYC inhibitor conditons.
To test the ability of LIF to stimulate LIFR^+ cells and cause their activation in situ, we exposed human adult articular cartilage cells to high doses of LIF for 72 hours (FIG. 5A).
For clonal assays cartilage cells were sorted by FACS and deposited into 96-well culture plates at 1 cell/well in DMEM/F12 culture medium supplemented with 1% FCS with or without LIF or RCGD 423. After 4 weeks clones (colonies with 50 cells or more) were counted using light microscopy in at least 300 wells for each culture condition.

[3] = test system: fetal articular cartilage explants; test: Apoptosis / survival in fetal articular cartilage explants (TUNEL, flow cytometry); type: cell-based, human; conditions: for fetal chondrocyte survival: Annexin V-FITC cell sorting; for apoptotic cells: fetal cartilage explants, inhibitor 24 hours
Method: FIGS. 26A-26J. LIF/STAT3/MYC signaling is prominent in fetal articular chondrocytes and can activate a fetal-like phenotype in adult cells. (FIG. 26A) Levels of phospho-STAT3 (pSTAT3) and MYC protein were quantitated in human fetal and adult articular chondrocytes relative to histone H3. (FIG. 26B) Effects of soluble LIF receptor (sLIFR) on MYC and pSTAT3 protein levels on fetal articular chondrocytes after 72 hours. (FIG. 26C) Detection of apoptotic cells using TUNEL staining and flow cytometry analysis of fetal articular cartilage explants cultured in the absence (control) or presence of a MYC (10058-F4) or STAT3 (STATTIC) inhibitor for 24 hours. (FIG. 26D) Quantification of proliferating cells via EdU incorporation in fetal articular cartilage explants and also by flow cytometry analysis for BrdU. Scale bars represent 100 μm. (FIG. 26E) Assessment of metabolic activity of human fetal articular chondrocytes cultured in the presence or absence of MYC or STAT3 inhibitors. (FIG. 26F) Migration capacity of fetal articular chondrocytes was assessed using a Transwell® assay in the absence or presence of MYC and STAT3 inhibitors. (FIG. 26G) Protein levels of MYC and pSTAT3 were measured in adult human articular chondrocytes with and without incubation with LIF. Data are shown normalized to histone H3. (FIG. 26H) Migratory capacity of adult human articular chondrocytes in a Transwell® assay measured in the presence or absence of LIF. (FIG. 26I) Single adult human articular chondrocytes were cultured with or without LIF for 5 weeks to allow detection of colony-forming cells. (FIG. 26J) Explants of adult pig articular cartilage were incubated with EdU in the presence or absence of LIF to detect proliferating cells. Scale bars represent 25 μm.
To assess the functional consequences of LIF signaling, explants of fetal cartilage were cultured with inhibitors of MYC or STAT3 (Schust et al., 2006) and then TUNEL stained; flow cytometry was used to quantitate the results of parallel experiments. […] MYC activity has been documented previously in cancer cell lines to regulate mitochondrial function (Fan et al., 2010). […]
TdT-mediated dUTP nick-end labeling (TUNEL) or EdU assays were performed by using in situ cell death detection kit (TUNEL, Roche Diagnostics GmbH, Germany) or Click-iT® Assay Kit obtained from Invitrogen (Carlsbad, Calif.), respectively, as described in the manufacturer's protocol. […] After staining sections were analyzed using fluorescent microscopy. Apoptosis was evaluated by flow cytometry with a Fortessa (BD Biosciences, San Jose, Calif.) cytometer using the Annexin V-FITC (Miltenyi Biotec, San Diego, Calif.) antibody. […]

BMPR1B+ chondrocytes = test: Retention of BMPR1B+ chondrocytes in culture (flow cytometry); type: cell-based, pig
Method: FIG. 35. RCGD 423 Preserves BMPR1B+ Chondrocytes in Culture. Adult pig chondrocytes were cultured in the presence of various cytokines or RCGD 423 and the number of cells expressing BMPR1B were quantitated using flow cytometry. Know mitogens for cartilage, including PDGF-BB and FGF2, promoted dramatic loss of BMPR1B^+ cells. In contrast, RCGD 423 and LIF acted to maintain cells with the BMPR1B+ phenotype.
BMPR1B+LIFR+ human adult articular chondrocytes were sorted using FACS and deposited in 96-well culture plates at density 10,000 cells per well in DMEM/F12 culture medium (Invitrogen) supplemented with 1% FBS. Growth factors or RCGD 423 were added at the time of plating. After 1, 3 and 7 days cultures were re-analyzed with FACS using an antibody against BMPR1B.

pSTAT3 and MYC = test: Western blot of pSTAT3 and MYC in adult pig articular chondrocytes; type: cell-based; conditions: for levels of MYC / levels of pSTAT3: adult pig articular chondrocytes, treated vs untreated, relative to histone H3
Description: Only early passages of chondrocytes (passage 0-2) were used for experimentation to avoid de-differentiation and loss of cartilage phenotype (Wu et al., 2014). Cartilage explants were made using 1, 2 or 8 mm biopsy punch and wet weight of each explant determined prior to experimentation. For cell isolation cartilage tissue was digested as described previously (Wu et al., 2015). Postnatal paraffin embedded joint and growth plate specimens were kindly donated by Dr Marcel Karperien from the University of Twente (Netherlands) and Dr Nick Bernthal from University of California Los Angeles. All donated material was anonymous and carried no personal identifiers. Cell culture reagents were purchased from Life Technologies, Inc. (Grand Island, N.Y.). Growth factors LIF, OSM, IL-6, TNF-α, IL-1β were purchased from Life Technologies, Inc (Grand Island, N.Y.). STATTIC, 10058-F4, SCl44 hydrochloride, and CP-690550 were purchased from Sigma Aldrich (St. Louis, Mo.). RCGD 423 (N-(4-Bromophenyl)-4-phenyl-1,3-thiazol-2-amine) was synthesized and provided by MolPort (Riga, Latvia). Fetal, adult and pig chondrocytes were cultured in DMEM F12 medium containing 10% (vol/vol) fetal bovine serum and 1% Penicillin-Streptomycin (vol/vol) at 37° C. in a humidified atmosphere of 95% aid and 5% CO2. Media was replenished with DMEM F12 medium containing 1% (vol/vol) fetal bovine serum and 1% Penicillin-Streptomycin (vol/vol) once treatments were added. For 3-dimensional (3D) cell cultures adult human articular chondrocytes were incubated with or without RCGD 423 using 10% solution of Mebiol® hydrogel from Cosmo Bio (Carlsbad, Calif.) in X-vivo 15 serum free medium from Lonza (Walkersville, Md.) as described previously (Wu et al., 2014).
(§1) Treated and non-treated ells were lysed in RIPA Lysis and Extraction Buffer (Pierce, Rockford, Ill.) containing protease inhibitors (Pierce) followed by sonication with a 15-second pulse at a power output of 2 using the VirSonic 100 (SP Industries Company, Warminster, Pa.). Protein concentrations were determined by BCA protein assay (Pierce). Proteins were resolved with SDS-PAGE utilizing 4-15% Mini-PROTEAN TGX Precast Gels and transferred to Trans-Blot Turbo Transfer Packs with a 0.2-μm pore-size nitrocellulose membrane. The SDS-PAGE running buffer, 4-15% Mini-PROTEAN TGX Precast Gels, Trans-Blot Turbo Transfer Packs with a 0.2-μm pore-size nitrocellulose membrane were purchased from Biorad (Hercules, Calif.). Nitrocellulose membranes were blocked in 5% nonfat milk in 0.05% (v/v) Tween 20 (PBST) (Corning, Manassas, Va.). Membranes were then incubated with primary antibodies phospho-STAT3 (#9131), MYC (#5605), NF-κB p65 (#D14E12), pAKT (#9272) Histone 3 (#9715) from Cell Signaling, (Danvers, Mass.); MEK1/2 (ab70613) and p38 (ab795) from Abcam (Cambridge, Mass.) overnight. After washing in PBS containing 0.05% (v/v) Tween 20 (PBST), membranes were incubated with Goat anti-Rabbit IgG (H+L) Secondary Antibody (Thermo Scientific Rockford, Ill.). After washing, membranes were developed with the Clarity Western ECL Blotting Substrate (Hercules, Calif.).

[4] = test system: MMP13, ADAMTS4 and ADAMTS5; test: Quantitative PCR of catabolic genes in adult pig articular chondrocytes; type: cell-based
Method: (§2) FIGS. 30A-30B. […] (FIG. 30A) Adult pig articular chondrocytes were cultured for 24 hours with the indicated cytokines or RCGD 423 and the levels of pSTAT3 and MYC were measured with respect to histone H3. Representative data for other proteins in the MAPK (p38 and MEK1/2), AKT (phospho-AKT; pAKT) or NF-KB (NF-KB p65) are also shown. (FIG. 30B) Levels of transcription of genes indicative of a catabolic response were determined via quantitative PCR in adult pig articular chondrocytes treated with OSM, IL-6, TNF-α, LIF or RCGD 423. Data are represented at mean±SD.
(§3) Cartilage degeneration is generally considered a feed-forward process, in which small losses of chondrocytes result in microenvironmental changes including induction of an inflammatory response and other pro-catabolic events (Hunziker, 2002). In turn, these alterations in the joint milieu promote production of matrix degrading proteins including MMPs (collagenases) and proteins of the ADAMTS family (aggrecanases). LIF has been implicated in promoting this cycle of matrix destruction during the pathogenesis of osteoarthritis (Hui et al., 2000; Lotz et al., 1992), although its role in this process has been controversial. In order to better understand the mechanism of action of LIF, RCGD 423 and known pro-inflammatory cytokines in the promotion of degeneration, we stimulated adult pig articular chondrocytes with these molecules and quantitated the levels of activated downstream proteins that mediate the cellular signaling response (FIG. 30A).
Total RNA was extracted using RNeasy Micro Kit (QIAGEN, Valencia, Calif.) according to the manufacturer's protocol. Quantitative reverse transcription PCR was performed using Bio-Rad T100 Thermal Cycler (Bio-Rad, Hercules, Calif.). Primer sequences are available upon request.

[5] = test system: MAPK, AKT, NF-κB pathways; test: Western blot of MAPK, AKT and NF-κB signaling in adult pig articular chondrocytes; type: cell-based; conditions: 24 hours
Method: as §2, §3, §1

| Molecule | incorporation of BrdU and EdU (fetal cartilage explants) | glycolysis [1] | clonogenic / clonal potential of fetal chondrocytes [2] | fetal chondrocyte survival [3] | apoptotic cells [3] | levels of MYC (pSTAT3 and MYC) | levels of pSTAT3 (pSTAT3 and MYC) | transcription of matrix degrading enzymes (MMP13, ADAMTS4 and ADAMTS5) [4] | activation of AKT [5] | activation of the MAPK pathway [5] | further results |
| --- | --- | --- | --- | --- | --- | --- | --- | --- | --- | --- | --- |
| CCc1ccc(/C=C2/SC(=S)NC2=O)cc1 [10058-F4] | greatly reduced | unaffected | markedly reduced | markedly reduced | strongly significant increases |  |  |  |  |  |  |
| O=[N+]([O-])c1ccc2c(c1)S(=O)(=O)C=C2 [STATTIC] | greatly reduced | unaffected | dramatically reduced | markedly reduced | strongly significant increases |  |  |  |  |  | clonogenic / clonal potential of fetal chondrocytes ([2]; listed as p-STAT3 inhibitor): markedly reduced |
| FGF2: known mitogen for cartilage |  |  |  |  |  |  |  |  |  |  | BMPR1B+ chondrocytes in culture (BMPR1B+ chondrocytes): dramatic loss |
| IL-6: IL-6 family cytokine |  |  |  |  |  | increase | increase | neither cytokine resulted in substantial transcriptional upregulation | stimulated the activation | stimulated the activation |  |
| TNF-α |  |  |  |  |  | inhibit accumulation | inhibit accumulation | upregulation | strong activation | strong activation | increases in pSTAT3 and MYC in the presence of RCGD 423 (pSTAT3 and MYC; co-stimulation of cytokine and RCGD 423): completely suppressed; also recorded: prevents the increases; NF-κB protein [5]: increased |

From patent US11072592B2, “Small molecules that enable cartilage rejuvenation” (The Regents of the University of California, priority 2015, dated 2021)
